Experimental data: ChEMBL document CHEMBL3124876, “A perylene derivative regulates HIF-1α and Stat3 signaling pathways” (Bioorg Med Chem, 2014)
Calls of active or inactive are those of the source. The calls are words filed in the database; no cut-off is given here.

How the values were obtained:
MDA-MB-231 [1] = test: Antitumor activity against human MDA-MB-231 cells xenografted in Balb nu/nu mouse assessed as reduction in tumor growth at 10 mg/kg, ip administered every other day for 10 days; format: functional, organism-based; parameters: dose 10 mg/kg
[2] = biological target: Hypoxia-inducible factor 1-alpha (Homo sapiens) (UniProt Q16665); test: Inhibition of HIF-1 alpha in human PANC1 cells after 3 hrs by Western blotting analysis in hypoxia condition; format: cell-based; conditions: PANC-1
[3] = biological target: Signal transducer and activator of transcription 3 (Homo sapiens) (UniProt P40763); test: Inhibition of IL6-induced STAT3 phosphorylation in human PANC1 cells after 3 hrs by Western blotting analysis in hypoxia condition; format: cell-based; conditions: PANC-1
MDA-MB-231 [4] = test: Anticancer activity in human MDA-MB-231 cells assessed as reduction of total Stat3 level at 10 uM after 18 hrs by Western blotting analysis; format: functional, cell-based
[5] = biological target: Signal transducer and activator of transcription 3 (Homo sapiens) (UniProt P40763); test: Inhibition of Stat3 in human MDA-MB-231 cells assessed as inhibition of Stat3 phosphorylation at 10 uM after 18 hrs by Western blotting analysis; format: cell-based
[6] = biological target: Hypoxia-inducible factor 1-alpha (Homo sapiens) (UniProt Q16665); test: Inhibition of HIF-1alpha in human MDA-MB-231 cells at 10 uM after 18 hrs by Western blotting analysis in hypoxia condition; format: cell-based
[7] = biological target: Signal transducer and activator of transcription 3 (Homo sapiens) (UniProt P40763); test: Inhibition of Stat3 phosphorylation in human MDA-MB-231 cells at 1 to 20 uM by Western blotting analysis; format: cell-based
Homo sapiens = organism: Homo sapiens; test: Inhibition of telomerase (unknown origin)
[8] = biological target: Hypoxia-inducible factor 1-alpha (Homo sapiens) (UniProt Q16665); test: Inhibition of HIF-1 alpha in human MDA-MB-231 cells at 1 to 20 uM by Western blotting analysis; format: cell-based
[9] = biological target: Signal transducer and activator of transcription 3 (Homo sapiens) (UniProt P40763); test: Inhibition of Stat3 phosphorylation in human MDA-MB-231 cells assessed as inhibition of c-Myc expression at 1 to 20 uM by Western blotting analysis; format: cell-based
MCF7 = test: Induction of apoptosis in human MCF7 cells up to 20 uM by MTT assay; format: functional, cell-based

Signal transducer and activator of transcription 3 (Homo sapiens), sequence (P40763 whole entry): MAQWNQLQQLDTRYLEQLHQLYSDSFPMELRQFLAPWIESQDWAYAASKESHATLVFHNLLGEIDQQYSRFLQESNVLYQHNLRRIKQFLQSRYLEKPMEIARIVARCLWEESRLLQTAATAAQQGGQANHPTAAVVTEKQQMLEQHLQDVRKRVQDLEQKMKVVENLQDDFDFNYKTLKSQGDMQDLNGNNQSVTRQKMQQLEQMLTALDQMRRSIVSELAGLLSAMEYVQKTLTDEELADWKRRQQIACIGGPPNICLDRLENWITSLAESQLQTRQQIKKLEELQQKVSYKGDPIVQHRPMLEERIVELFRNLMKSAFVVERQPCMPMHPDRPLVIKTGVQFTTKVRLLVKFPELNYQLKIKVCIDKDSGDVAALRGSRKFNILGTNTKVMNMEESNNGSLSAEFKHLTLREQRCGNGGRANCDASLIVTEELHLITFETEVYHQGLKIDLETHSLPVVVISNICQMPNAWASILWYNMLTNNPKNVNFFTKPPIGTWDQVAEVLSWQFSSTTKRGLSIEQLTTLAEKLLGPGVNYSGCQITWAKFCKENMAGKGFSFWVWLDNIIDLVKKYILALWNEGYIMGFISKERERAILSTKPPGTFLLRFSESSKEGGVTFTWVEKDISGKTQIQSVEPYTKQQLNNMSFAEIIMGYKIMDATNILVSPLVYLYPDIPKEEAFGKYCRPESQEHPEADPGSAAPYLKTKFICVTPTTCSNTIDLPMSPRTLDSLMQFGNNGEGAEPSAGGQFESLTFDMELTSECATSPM
Hypoxia-inducible factor 1-alpha (Homo sapiens), sequence (Q16665 whole entry, looked up): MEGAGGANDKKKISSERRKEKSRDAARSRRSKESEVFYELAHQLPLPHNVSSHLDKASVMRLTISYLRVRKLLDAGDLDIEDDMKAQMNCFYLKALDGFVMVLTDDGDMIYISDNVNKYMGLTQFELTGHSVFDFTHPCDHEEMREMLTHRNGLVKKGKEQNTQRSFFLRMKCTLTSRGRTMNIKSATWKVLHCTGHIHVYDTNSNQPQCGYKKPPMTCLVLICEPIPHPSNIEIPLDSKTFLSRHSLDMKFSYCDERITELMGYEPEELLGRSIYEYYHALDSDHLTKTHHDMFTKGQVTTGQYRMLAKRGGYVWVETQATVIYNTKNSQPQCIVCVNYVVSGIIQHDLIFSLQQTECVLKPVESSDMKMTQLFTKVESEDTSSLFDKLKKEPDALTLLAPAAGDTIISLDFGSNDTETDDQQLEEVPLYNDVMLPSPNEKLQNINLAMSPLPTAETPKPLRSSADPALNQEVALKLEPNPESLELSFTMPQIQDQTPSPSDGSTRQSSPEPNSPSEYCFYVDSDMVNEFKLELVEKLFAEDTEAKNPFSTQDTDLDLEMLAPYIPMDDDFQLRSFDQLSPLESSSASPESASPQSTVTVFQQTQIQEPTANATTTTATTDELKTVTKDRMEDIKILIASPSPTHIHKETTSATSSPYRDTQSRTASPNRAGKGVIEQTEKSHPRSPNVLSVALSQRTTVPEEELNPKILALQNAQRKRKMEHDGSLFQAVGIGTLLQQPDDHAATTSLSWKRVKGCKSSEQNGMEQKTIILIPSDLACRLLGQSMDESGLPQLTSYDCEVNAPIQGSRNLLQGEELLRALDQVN

Structure (SMILES): Nc1ccn([C@@H]2O[C@H](COP(=O)(O)O[C@H]3[C@@H](O)[C@H](n4cnc5c(=O)[nH]c(N)nc54)O[C@@H]3COP(=O)(O)O[C@H]3[C@@H](O)[C@H](n4cnc5c(=O)[nH]c(N)nc54)O[C@@H]3COP(=O)(O)O[C@H]3[C@@H](O)[C@H](n4cnc5c(=O)[nH]c(N)nc54)O[C@@H]3COP(=O)(O)O[C@H]3[C@@H](O)[C@H](n4ccc(N)nc4=O)O[C@@H]3COP(=O)(O)O[C@H]3[C@@H](O)[C@H](n4cnc5c(=O)[nH]c(N)nc54)O[C@@H]3COP(=O)(O)O[C@H]3[C@@H](O)[C@H](n4cnc5c(=O)[nH]c(N)nc54)O[C@@H]3COP(=O)(O)O[C@H]3[C@@H](O)[C@H](n4cnc5c(=O)[nH]c(N)nc54)O[C@@H]3COP(=O)(O)O[C@H]3[C@@H](O)[C@H](n4ccc(N)nc4=O)O[C@@H]3COP(=O)(O)O[C@H]3[C@@H](O)[C@H](n4cnc5c(=O)[nH]c(N)nc54)O[C@@H]3COP(=O)(O)O[C@H]3[C@@H](O)[C@H](n4cnc5c(=O)[nH]c(N)nc54)O[C@@H]3COP(=O)(O)O[C@H]3[C@@H](O)[C@H](n4cnc5c(=O)[nH]c(N)nc54)O[C@@H]3COP(=O)(O)O[C@H]3[C@@H](O)[C@H](n4ccc(N)nc4=O)O[C@@H]3COP(=O)(O)O[C@H]3[C@@H](O)[C@H](n4cnc5c(=O)[nH]c(N)nc54)O[C@@H]3COP(=O)(O)O[C@H]3[C@@H](O)[C@H](n4cnc5c(=O)[nH]c(N)nc54)O[C@@H]3COP(=O)(O)O[C@H]3[C@@H](O)[C@H](n4cnc5c(=O)[nH]c(N)nc54)O[C@@H]3COP(=O)(O)O)[C@@H](O)[C@H]2O)c(=O)n1
- Activity (MDA-MB-231 [1]): Active
- inhibition [2]: inactive
- inhibition [3]: Active

Structure (SMILES): CN(CCCN)CCCN1C(=O)c2ccc3c4ccc5c6c(ccc(c7ccc(c2c37)C1=O)c64)C(=O)N(CCCN(C)CCCCN)C5=O
- Activity (MDA-MB-231 [4]): inactive
- inhibition [5]: inactive
- inhibition [6]: inactive

Structure (SMILES): NCCCN1C(=O)c2ccc3c4ccc5c6c(ccc(c7ccc(c2c37)C1=O)c64)C(=O)N(CCCN)C5=O
- Activity (MDA-MB-231 [4]): inactive
- inhibition [5]: inactive
- inhibition [6]: inactive

Structure (SMILES): NCCN1C(=O)c2ccc3c4ccc5c6c(ccc(c7ccc(c2c37)C1=O)c64)C(=O)N(CCN)C5=O
- inhibition [7]: inactive
- Activity (MDA-MB-231 [4]): inactive
- inhibition [5]: inactive
- inhibition (Homo sapiens): Active
- inhibition [8]: inactive
- inhibition [9]: inactive
- inhibition [6]: inactive
- Activity (MCF7): inactive
